Assay results as given in patent US4775671A, “Imidazodiazepines” (Hoffmann-La Roche Inc., priority 1984, dated 1988).

Legend:
[1] = Acute toxicity, single oral administration to mice; conditions: mouse, in vivo
Excerpt: The results which have been obtained with representative members of the class of compound defined by general formula I in the experiments described previously are compiled in the following Table. Moreover, the Table contains data concerning the acute toxicity of some of these compounds (LD50 in mg/kg in the case of single oral administration to mice).

[2] = test system: spasmodic seizures caused by pentetrazole; test: Antipentetrazole test (anticonvulsant); assay type: in vivo; conditions: Rattus norvegicus, po, 0.5 h; female rats 60-80 g, p.o., 30 minutes before 120 mg/kg pentetrazole i.p.; protects 50% of animals
Procedure: The central properties of the compounds of formula I in accordance with the invention can be determined, for example, in the antipentetrazole test which is described hereinafter and which is generally recognized for recording anticonvulsant properties.
In this animal experiment the compound under investigation is administered orally to female rats weighing 60-80 g and 30 minutes later there are administered i.p. 120 mg/kg of pentetrazole, which causes emprosthotonus and tonic stretchings of the fore and/or hind limbs in unprotected experimental animals 1-4 minutes after the injection. Ten experimental animals are used per dosage of test substance. After counting the protected experimental animals the ED50 is determined according to the Probit method. The ED50 is that dosage which protects 50% of the experimental animals from the spasmodic seizures caused by pentetrazole.

[3] = target: central benzodiazepine receptors; test: Inhibition of binding of tritiated diazepam at specific benzodiazepine receptors in the cerebral cortex; conditions: 50 percent inhibition of specific binding of tritiated diazepam
Procedure: The affinity of compounds of general formula I to the central benzodiazepine receptors was determined according to the method described in Life Science 20, 2101-2110 (1977) and Science 198, 849-851 ([…]). According to this method, the inhibition of the binding of tritiated diazepam at the specific benzodiazepine receptors in the cerebral cortex by the respective test substances is ascertained. The IC50 ("50% inhibiting concentration") is that concentration of the respective test substance which brings about a 50 percent inhibition of the specific binding of the tritiated diazepam at the specific benzodiazepine receptors in the cerebral cortex.

Compound | LD50 [1] | ED50 [2] | IC50 [3]
Cc1noc(-c2ncn3c2[C@@H]2CCCN2C(=O)c2c(Cl)cccc2-3)n1 | 2000 to 4000 mg/kg | 0.08 mg/kg | 2.3 nM
Cc1nnc(-c2ncn3c2[C@@H]2CCCN2C(=O)c2c(Cl)cccc2-3)o1 | 312 to 625 mg/kg | 2.7 mg/kg | 8.4 nM
Cc1noc(-c2ncn3c2CN(C)C(=O)c2c(Cl)cccc2-3)n1 | 1250 to 2500 mg/kg | 0.43 mg/kg | 3.9 nM
O=C1c2c(Cl)cccc2-n2cnc(-c3noc(C(F)(F)F)n3)c2[C@@H]2CCCN12 | – | 1.2 mg/kg | 9.6 nM
CN1Cc2c(-c3nc(C4CC4)no3)ncn2-c2cccc(Cl)c2C1=O | – | 0.034 mg/kg | 4.5 nM
O=C1c2c(Cl)cccc2-n2cnc(-c3nc(C4CC4)no3)c2[C@@H]2CCCN12 | 1250 to 2500 mg/kg | 0.2 mg/kg | 2.2 nM
CN1Cc2c(-c3nc(C4CC4)no3)ncn2-c2ccc(F)cc2C1=O | – | 0.23 mg/kg | 5.6 nM
COCc1noc(-c2ncn3c2[C@@H]2CCCN2C(=O)c2c(Cl)cccc2-3)n1 | – | 0.39 mg/kg | 5.2 nM
Cc1noc(-c2ncn3c2C2CCN2C(=O)c2c(Cl)cccc2-3)n1 (racemic) | – | 0.32 mg/kg | 10 nM
Cc1noc(-c2ncn3c2[C@@H]2CCCN2C(=O)c2c-3ccc(F)c2Cl)n1 [Example 4, (S)-8-chloro-7-fluoro-11,12,13,13a-tetrahydro-1-(3-methyl-1,2,4-oxadiazol-5-yl)-9H-imidazo[1,5-a]pyrrolo[2,1-c][1,4]benzodiazepin-9-one] | 1250 to 2500 mg/kg | 0.082 mg/kg | 5.2 nM
Cc1noc(-c2ncn3c2[C@@H]2CCCN2C(=O)c2c(Br)cccc2-3)n1 [Example 5, (S)-8-bromo-11,12,13,13a-tetrahydro-1-(3-methyl-1,2,4-oxadiazol-5-yl)9H-imidazo[1,5-a]pyrrolo[2,1-c][1,4] benzodiazepin-9-one] | 2500 to 5000 mg/kg | 0.068 mg/kg | 2.1 nM
Cc1noc(-c2ncn3c2[C@@H]2CCN2C(=O)c2c-3cccc2C(F)(F)F)n1 [Example 9, (S)-12,12a-dihydro-1-(3-methyl-1,2,4-oxadiazol-5-yl)-8-(trifluoromethyl)-9H,11H-azeto[2,1-c]imidazo[1,5-a][1,4]benzodiazepin-9-one] | – | 0.021 mg/kg | 3.7 nM
CON=Cc1ncn2c1[C@@H]1CCN1C(=O)c1c(Cl)cccc1-2 [Example 23, (S)-8-chloro-12,12a-dihydro-9-oxo-9H,11H-azeto[2,1-c]imidazo[1,5-a][1,4]benzodiazepine-1-carboxaldehyde O-methyl oxime] | – | 0.63 mg/kg | 10 nM
